{
  "source": "patent US20100273656A1",
  "about": "“COMPOSITION AND METHOD FOR SELECTIVE HERBICIDE” (priority 2002, published 2010)",
  "key": {"perennial ryegrass [1]": {"system": "perennial ryegrass", "assay": "Example 17 iron chelates with Killex, perennial ryegrass", "assay_type": "in vivo", "procedure": "(§1) Plants were fertilized with an all purpose water-soluble fertilizer mix of 20-20-20 (N-P-K; Plant-Prod®) as needed. All broadleaf weeds were grown individually in a 2¼-inch pot until they were a suitable size for herbicide tests (actual weed size is reported in examples below). Perennial ryegrass was also grown in 2¼-inch pots, however many grass seeds were sown in the pot to simulate a small section of turf. Grass plants were continually trimmed to a height of 4 cm, simulating that of a homeowner's lawn. For field tests, plots ¼ m^2 in size were marked out in areas containing the targeted broadleaf weed species growing in turf grass. Plots were continually mowed to simulate a homeowner's lawn. […] In all of the examples, the amounts of the various herbicide components are identified as a percent on a weight basis.\n(§2) Killex® (Scotts Canada, Ltd., Ontario, Canada) is a commonly used selective lawn herbicide and was used as the commercial herbicide for herbicide combinations. The labeled dilution and application rates for Killex® are 6 ml into 1 L of solution (0.6%) applied at 200 ml/m^2.\n(§3) All visual plant damage assessments were made using a quantitative rating scale; percent control relative to the untreated check (0=no effect; 100=plant death).\n(§4) Materials and Methods: This trial was conducted in the greenhouse. Nine pots of white clover and 10 pots of perennial ryegrass were selected for each treatment. Herbicidal solutions were prepared using deionized water. The treatments were applied using a handheld trigger sprayer at 200 ml/m^2. All treatments were applied once. Phytotoxicity (%) was assessed 4, 7, and 14 days after application (A4, A7, and A14)."}, "daisy (Bellis perennis)": {"system": "daisy (Bellis perennis)", "assay": "Example 11 field test, daisy in lawn", "assay_type": "in vivo", "procedure": "(§5) Killex® (Green Cross, Ontario, Canada) is a commonly used selective lawn herbicide and was included in several field tests as a standard. Killex contains 2,4-D (9.5%), mecoprop (5%) and dicamba (0.9%). The product was diluted 6 ml into 1 L of water solution and applied at rate of 200 ml/m^2, as per label instructions.\n(§6) This test investigated the effect of FeHEDTA and a mixture of FeEDDS and FeMGDA on daisy (Bellis perennis), dandelion (Taraxacum officinale) and a turf bentgrass (Agrostis sp.). The chelating agents were used at one and a half times the molar amount of iron. The FeHEDTA solutions contained 0.2% iron (35.8 mM). The commercially prepared FeHEDTA product from the Monterey Chemical Company (CA, USA) was used as a standard. The (FeEDDS+FeMGDA) solutions contained 0.4% iron (71.6 mM) and the same molar amount of EDDS and MGDA. The solutions were made from NaEDDS (Octaquest E30, Octel) and NaMGDA (Trilon M liquid, BASF, Germany). Ammonium sulfate was added at a concentration of 1%. Killex (Solaris ON, Canada) was diluted and applied as per label instructions of 6 ml/L applied at 200 ml/m^2.\n(§7) The daisy (0.25 m^2) and dandelion (0.5 m^2) test plots were in different areas of the bentgrass field. The dandelions were large, averaging 30 cm in diameter. The daisy patches were between 10 and 20 cm in diameter. The plants were sprayed weekly 4 times."}, "white clover [2]": {"system": "white clover", "assay": "Example 18 FeHEDTA with Killex, white clover", "assay_type": "in vivo", "procedure": "as §1, §2, §3\nas §4, with “Herbicide” for “Herbicidal”, “hand-trigger” for “handheld trigger”"}, "dandelions": {"system": "dandelions", "assay": "Example 2 field test of FeEDDS and FeHEDTA at pH 3 and 7, dandelion", "assay_type": "in vivo, Taraxacum officinale", "procedure": "The following non-limiting examples serve to further describe the invention. Unless otherwise specified, all of the iron solutions were made using the same molar concentration of iron ion as chelating agent. All of the outside tests were done on areas of mixed grass and dandelions that were at least 2 months old. For the greenhouse tests, dandelions were grown in a commercial greenhouse mix, using supplemental lighting and heating. Each plant was grown in a 2¼ inch pot to a minimum diameter of 20 cm. All of the solutions were sprayed onto the plants at a rate of 100 ml/m^2. The ferrous sulfate formulations that were used in examples 1, 2, 8 and 9 contained 1% iron (180 mM), 18 mM EDTA, 1% citric acid and 0.5% urea. In all of the examples, the amount of iron is identified in brackets as the percent iron on a weight basis.\nAll plant damage was assessed using a qualitative rating scale from 0 to 9.\nThe FeEDDS and FeHEDTA solutions contained 0.2% Fe^+3 (35.8 mM). The ferrous sulfate contained 1% Fe^+2 (179.1 mM). The solutions were sprayed at a rate of 0.1 L/m^2 onto 2 plots of 0.5 m^2 of mixed grass and dandelions. Observations were made 4 days after spraying."}, "white clover [3]": {"system": "white clover", "assay": "Example 22 field test FeIDS and/or FeHEDTA with Killex, white clover", "assay_type": "in vivo", "settings": "A7 = 7 days after treatment", "procedure": "as §1, with “basis. […]” for “basis.”\nas §3\nMaterials and Methods: Plots ¼ m^2 in size were marked out in white clover and Park Lawn (turfgrass mixture comprising of 65% perennial ryegrass, 25% chewings/creeping red fescue and 10% Kentucky bluegrass) area in the field. […] Phytotoxicity (%) was assessed on 7 days after treatment (A7)."}, "[4]": {"system": "dandelion (Taraxacum officinale)", "assay": "Example 11 field test, dandelion in lawn", "assay_type": "in vivo", "procedure": "as §5, §6, §7"}, "perennial ryegrass [5]": {"system": "perennial ryegrass", "assay": "Example 18 FeHEDTA with Killex, perennial ryegrass", "assay_type": "in vivo", "procedure": "as §1, §2, §3\nas §4, with “Herbicide” for “Herbicidal”, “hand-trigger” for “handheld trigger”"}},
  "data": [
    {"smiles": "O=C([O-])CN(CCO)CCN(CC(=O)[O-])CC(=O)[O-].[Fe+3]", "note": "[FeHEDTA]", "values": [
      {"measurement": "Phytotoxicity (%) against perennial ryegrass", "setting": "perennial ryegrass [1]; A4", "result": 8, "unit": "%"},
      {"measurement": "Phytotoxicity (%) against perennial ryegrass", "setting": "perennial ryegrass [1]; A7", "result": 7, "unit": "%"},
      {"measurement": "Phytotoxicity (%) against perennial ryegrass", "setting": "perennial ryegrass [1]; A14", "result": 1, "unit": "%"},
      {"measurement": "Plot Area Covered by Daisy Plants (%)", "setting": "daisy (Bellis perennis); day 0 (start of test)", "result": 60, "unit": "%"},
      {"measurement": "Daisy Necrosis (%)", "setting": "daisy (Bellis perennis); day 2", "result": 20, "unit": "%"},
      {"measurement": "Daisy Necrosis (%)", "setting": "daisy (Bellis perennis); day 10", "result": 95, "unit": "%"},
      {"measurement": "Plot Area Covered by Daisy Plants (%)", "setting": "daisy (Bellis perennis); day 13, sprayed weekly 4 times", "result": 1, "unit": "%"},
      {"measurement": "Daisy Necrosis (%)", "setting": "daisy (Bellis perennis); day 16", "result": 98, "unit": "%"},
      {"measurement": "Plot Area Covered by Daisy Plants (%)", "setting": "daisy (Bellis perennis); day 21", "result": 2, "unit": "%"},
      {"measurement": "Daisy Necrosis (%)", "setting": "daisy (Bellis perennis); day 23", "result": 98, "unit": "%"},
      {"measurement": "Plot Area Covered by Daisy Plants (%)", "setting": "daisy (Bellis perennis); day 30", "result": 0.5, "unit": "%"},
      {"measurement": "Phytotoxicity (%) against white clover", "setting": "white clover [2]; A4", "result": 27, "unit": "%"},
      {"measurement": "Phytotoxicity (%) against white clover", "setting": "white clover [2]; A7", "result": 50, "unit": "%"},
      {"measurement": "Phytotoxicity (%) against white clover", "setting": "white clover [2]; A14", "result": 18, "unit": "%"},
      {"measurement": "Dandelion Damage (0 to 9)", "setting": "dandelions; solution pH 2.6-3.0, 0.1 L/m^2, 4 days after spraying", "result": "7.0 0 to 9"},
      {"measurement": "Dandelion Damage (0 to 9)", "setting": "dandelions; solution pH 7.0-7.1, 0.1 L/m^2, 4 days after spraying", "result": "7.5 0 to 9"},
      {"measurement": "Phytotoxicity (%) against white clover", "setting": "white clover [3]", "result": 48, "unit": "%"},
      {"measurement": "Plot Area Covered by Dandelion Plants (%)", "setting": "[4]; day 0 (start of test)", "result": 80, "unit": "%"},
      {"measurement": "Dandelion Necrosis (%)", "setting": "[4]; day 2", "result": 95, "unit": "%"},
      {"measurement": "Dandelion Necrosis (%)", "setting": "[4]; day 9", "result": 98, "unit": "%"},
      {"measurement": "Plot Area Covered by Dandelion Plants (%)", "setting": "[4]; day 13, sprayed weekly 4 times", "result": 5, "unit": "%"},
      {"measurement": "Dandelion Necrosis (%)", "setting": "[4]; day 16", "result": 97, "unit": "%"},
      {"measurement": "Plot Area Covered by Dandelion Plants (%)", "setting": "[4]; day 21", "result": 10, "unit": "%"},
      {"measurement": "Dandelion Necrosis (%)", "setting": "[4]; day 23", "result": 97, "unit": "%"},
      {"measurement": "Plot Area Covered by Dandelion Plants (%)", "setting": "[4]; day 26", "result": 8, "unit": "%"},
      {"measurement": "Phytotoxicity (%) on perennial ryegrass", "setting": "perennial ryegrass [5]; A4", "result": 2, "unit": "%"},
      {"measurement": "Phytotoxicity (%) on perennial ryegrass", "setting": "perennial ryegrass [5]; A7", "result": 1, "unit": "%"},
      {"measurement": "Phytotoxicity (%) on perennial ryegrass", "setting": "perennial ryegrass [5]; A14", "result": 2, "unit": "%"}
    ]}
  ]
}
